Source: paper PMC11173485, “Connecting GSK-3β Inhibitory Activity with IKK-β or ROCK-1 Inhibition to Target Tau Aggregation and Neuroinflammation in Alzheimer’s Disease—Discovery, In Vitro and In Cellulo Activity of Thiazole-Based Inhibitors” (Molecules, 2024)

Key:
IKK-β [1] = biological target: T1, IKK-β (Homo sapiens, UniProt O14920); assay: ADP-Glo kinase assay, IKK-β inhibition; format: biochemical; conditions: for inhibition at 10 µM: mean ± SD, read-out: % inh. at 10 µM IKK-β; for IC50: mean ± SEM, ATP 25 µM
T1 construct: purchased Promega
T1 sequence (O14920 1-756): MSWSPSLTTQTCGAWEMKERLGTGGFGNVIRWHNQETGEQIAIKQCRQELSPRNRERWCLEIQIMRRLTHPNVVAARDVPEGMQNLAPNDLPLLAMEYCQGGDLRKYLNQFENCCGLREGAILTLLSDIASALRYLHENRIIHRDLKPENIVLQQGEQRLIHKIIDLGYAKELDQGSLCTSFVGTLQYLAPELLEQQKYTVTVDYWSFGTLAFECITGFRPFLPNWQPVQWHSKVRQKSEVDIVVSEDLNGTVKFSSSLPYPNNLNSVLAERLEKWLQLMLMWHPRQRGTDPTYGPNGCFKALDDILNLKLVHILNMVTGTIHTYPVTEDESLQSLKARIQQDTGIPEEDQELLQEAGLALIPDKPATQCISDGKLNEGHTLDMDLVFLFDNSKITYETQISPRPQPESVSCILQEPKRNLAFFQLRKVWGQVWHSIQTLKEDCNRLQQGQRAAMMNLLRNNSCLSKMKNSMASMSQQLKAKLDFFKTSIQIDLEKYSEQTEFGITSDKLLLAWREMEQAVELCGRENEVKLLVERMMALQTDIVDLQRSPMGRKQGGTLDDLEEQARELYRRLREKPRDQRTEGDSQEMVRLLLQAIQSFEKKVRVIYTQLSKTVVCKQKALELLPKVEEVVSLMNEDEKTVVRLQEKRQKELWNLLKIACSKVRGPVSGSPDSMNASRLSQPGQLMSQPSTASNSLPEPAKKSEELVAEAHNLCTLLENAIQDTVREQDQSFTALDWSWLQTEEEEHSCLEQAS
Description: (§1) We evaluated the inhibitory activity of the final compounds against GSK-3β, IKK-β, and ROCK-1 kinases using the commercially available ADP-Glo™ kinase assay. The method was based on the measurement of luminescence that correlates with kinase activity. […] The latter are inhibitors of the kinases of interest and were integral to the design of our studies.
(§2) Promega’s Kinase Enzyme Systems (Promega; Madison, WI, USA) were used to determine the activities of the tested compounds against the human recombinant kinases GSK-3β, IKK- β, and ROCK-1. The assays were performed according to the provided manufacturer’s instruction, based on the optimized conditions of the enzymatic reactions, using the low-volume, white polystyrene, 384-well plates. The ADP-Glo™ Assay (Promega; Madison, WI, USA) was used for bioluminescent detection of the kinase activity. Stock solutions of the tested compounds in DMSO (1mM) were diluted with the Kinase Assay Buffer before use (40 mM Tris, pH 7.5, enriched with 50 µM dithiothreitol; DTT), giving the final desired concentrations. The kinase enzymes, substrates, and ATP solutions were also diluted with the assay buffer prior to use. The GSK-3β, IKK-β, and ROCK-1 substrates were derived from human muscle glycogen synthase 1, human IkBA, and human 40S ribosomal protein S6, respectively. The assay procedure was as follows: At first, the appropriate kinase enzyme (GSK-3β: 10 ng per well; IKK-β: 45 ng per well; ROCK-1: 24 ng per well) was incubated with the tested sample (10 µM in well) for 5 min. The DMSO solution (1% in well) was used in the blank samples instead of the tested inhibitors. After the incubation period, ATP (25 µM per well in the case of GSK-3β and IKK-β kinases; 5 µM per well in the case of ROCK-1 kinase) and an appropriate enzyme substrate (0.2 µg/µL in well) were added to start the enzymatic reaction. The reaction mixture was kept at room temperature for 1 h; then, the ADP-Glo™ reagent was added, to terminate the kinase reaction and deplete any remaining ATP. After 40 min, a second reagent (Kinase Detection Reagent) was applied to convert the obtained ADP to ATP and to generate light from the newly synthesized ATP using a luciferase/luciferin reaction. The mixture was incubated for another 30 min at room temperature before the luminescence was measured. The calculations of the percent of kinases’ inhibition by tested compounds were based on the equation 100 − (S/B) × 100; S and B are the enzyme activities with and without the tested sample, respectively. […] Each compound was evaluated in two independent experiments, with every data point collected in duplicate.

GSK-3β = GSK-3β (Homo sapiens, UniProt P49841); assay: ADP-Glo kinase assay, GSK-3β inhibition; format: biochemical; parameters: purchased Promega; conditions: for inhibition at 10 µM: mean ± SD, read-out: % inh. at 10 µM GSK-3β; for IC50: mean ± SEM, ATP 25 µM
Description: as §1, §2

ROCK-1 [2] = biological target: T2, ROCK-1 (Homo sapiens, UniProt Q13464); assay: ADP-Glo kinase assay, ROCK-1 inhibition; format: biochemical; conditions: for inhibition at 10 µM: mean ± SD, read-out: % inh. at 10 µM ROCK-1; for IC50: mean ± SEM, ATP 5 µM
T2 construct: purchased Promega
Description: as §1
Promega’s Kinase Enzyme Systems (Promega; Madison, WI, USA) were used to determine the activities of the tested compounds against the human recombinant kinases GSK-3β, IKK- β, and ROCK-1. The assays were performed according to the provided manufacturer’s instruction, based on the optimized conditions of the enzymatic reactions, using the low-volume, white polystyrene, 384-well plates. The ADP-Glo™ Assay (Promega; Madison, WI, USA) was used for bioluminescent detection of the kinase activity. Stock solutions of the tested compounds in DMSO (1mM) were diluted with the Kinase Assay Buffer before use (40 mM Tris, pH 7.5, enriched with 50 µM dithiothreitol; DTT), giving the final desired concentrations. The kinase enzymes, substrates, and ATP solutions were also diluted with the assay buffer prior to use. The GSK-3β, IKK-β, and ROCK-1 substrates were derived from human muscle glycogen synthase 1, human IkBA, and human 40S ribosomal protein S6, respectively. […] The DMSO solution (1% in well) was used in the blank samples instead of the tested inhibitors. After the incubation period, ATP (25 µM per well in the case of GSK-3β and IKK-β kinases; 5 µM per well in the case of ROCK-1 kinase) and an appropriate enzyme substrate (0.2 µg/µL in well) were added to start the enzymatic reaction. The reaction mixture was kept at room temperature for 1 h; then, the ADP-Glo™ reagent was added, to terminate the kinase reaction and deplete any remaining ATP. After 40 min, a second reagent (Kinase Detection Reagent) was applied to convert the obtained ADP to ATP and to generate light from the newly synthesized ATP using a luciferase/luciferin reaction. The mixture was incubated for another 30 min at room temperature before the luminescence was measured. The calculations of the percent of kinases’ inhibition by tested compounds were based on the equation 100 − (S/B) × 100; S and B are the enzyme activities with and without the tested sample, respectively. […]. IC50 results were obtained using nonlinear regression (GraphPad Prism 9; GraphPad Software, San Diego, CA, USA) by plotting the residual enzyme activities against the applied inhibitor concentration. Each compound was evaluated in two independent experiments, with every data point collected in duplicate.

IKK-β [3] = tested on: IKK-β; parameters: method as in PMID 15125939; conditions: Figure 1; cited from earlier work
ROCK-1 [4] = tested on: ROCK-1; parameters: method as in PMID 28284870; conditions: Figure 1; cited from earlier work

Sequence of GSK-3β (P49841 whole entry): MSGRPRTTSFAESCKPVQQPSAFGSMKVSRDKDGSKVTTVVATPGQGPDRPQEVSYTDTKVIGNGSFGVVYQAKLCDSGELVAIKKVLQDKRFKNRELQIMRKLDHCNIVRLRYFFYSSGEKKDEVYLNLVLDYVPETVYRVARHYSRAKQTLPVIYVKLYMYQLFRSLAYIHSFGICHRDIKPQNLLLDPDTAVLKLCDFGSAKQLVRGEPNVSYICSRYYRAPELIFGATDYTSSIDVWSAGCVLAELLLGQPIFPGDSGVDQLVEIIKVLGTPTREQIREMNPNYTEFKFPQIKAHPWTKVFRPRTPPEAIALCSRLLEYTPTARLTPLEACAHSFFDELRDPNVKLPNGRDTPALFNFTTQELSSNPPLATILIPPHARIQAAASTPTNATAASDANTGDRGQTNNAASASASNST
T2 sequence (Q13464 whole entry): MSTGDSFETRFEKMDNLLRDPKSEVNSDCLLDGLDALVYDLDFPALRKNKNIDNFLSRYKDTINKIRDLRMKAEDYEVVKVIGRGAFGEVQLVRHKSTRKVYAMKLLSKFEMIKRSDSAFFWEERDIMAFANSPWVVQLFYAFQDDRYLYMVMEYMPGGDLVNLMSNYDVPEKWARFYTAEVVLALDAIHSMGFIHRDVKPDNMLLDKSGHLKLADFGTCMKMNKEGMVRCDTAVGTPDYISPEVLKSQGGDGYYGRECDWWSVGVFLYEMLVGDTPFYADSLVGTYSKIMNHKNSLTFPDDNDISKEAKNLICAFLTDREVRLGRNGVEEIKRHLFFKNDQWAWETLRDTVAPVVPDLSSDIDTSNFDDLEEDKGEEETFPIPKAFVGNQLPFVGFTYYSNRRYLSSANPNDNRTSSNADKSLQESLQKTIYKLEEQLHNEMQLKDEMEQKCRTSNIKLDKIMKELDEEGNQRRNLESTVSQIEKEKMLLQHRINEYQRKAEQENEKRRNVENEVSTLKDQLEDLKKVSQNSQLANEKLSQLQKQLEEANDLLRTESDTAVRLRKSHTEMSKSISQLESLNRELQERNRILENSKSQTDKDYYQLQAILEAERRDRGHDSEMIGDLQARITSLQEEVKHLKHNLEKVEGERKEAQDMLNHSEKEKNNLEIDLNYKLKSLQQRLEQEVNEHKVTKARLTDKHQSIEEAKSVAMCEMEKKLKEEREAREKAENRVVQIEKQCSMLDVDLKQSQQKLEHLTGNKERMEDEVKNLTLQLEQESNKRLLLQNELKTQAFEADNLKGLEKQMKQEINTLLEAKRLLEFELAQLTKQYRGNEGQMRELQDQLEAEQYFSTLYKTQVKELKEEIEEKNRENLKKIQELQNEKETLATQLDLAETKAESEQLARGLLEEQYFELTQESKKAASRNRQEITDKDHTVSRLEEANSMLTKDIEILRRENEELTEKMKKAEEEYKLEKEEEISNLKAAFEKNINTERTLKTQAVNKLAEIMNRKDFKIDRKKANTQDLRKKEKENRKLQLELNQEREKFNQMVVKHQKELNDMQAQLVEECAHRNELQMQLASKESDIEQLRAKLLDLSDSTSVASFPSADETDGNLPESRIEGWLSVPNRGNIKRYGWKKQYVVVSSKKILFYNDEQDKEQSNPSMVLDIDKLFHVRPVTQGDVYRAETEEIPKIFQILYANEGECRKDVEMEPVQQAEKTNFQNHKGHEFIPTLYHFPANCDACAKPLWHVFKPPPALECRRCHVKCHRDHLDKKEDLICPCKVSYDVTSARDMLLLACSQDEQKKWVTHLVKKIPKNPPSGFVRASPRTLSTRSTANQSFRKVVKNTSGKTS

Row | inhibition at 10 µM (IKK-β [1]) | inhibition at 10 µM (GSK-3β) | inhibition at 10 µM (ROCK-1 [2]) | IC50 (IKK-β [1]) | IC50 (GSK-3β) | IC50 (ROCK-1 [2]) | SMILES | IC50 (IKK-β [3]) | IC50 (ROCK-1 [4])
1 | < 10% | 40% | < 10% |  |  |  | CCS(=O)(=O)Nc1cc(-c2cc3c(s2)C(=O)NC(C)(C)N3)ccn1 [Compound 45, N-(4-(2,2-Dimethyl-4-oxo-1,2,3,4-tetrahydrothieno [3,2-d]pyrimidin-6-yl)pyridin-2-yl)-ethanesulfonamide] |  | 
2 |  |  | 50% | 6.52 ± 0.281 µM | 1.13 ± 0.043 µM |  | CC(=O)Nc1cc(-c2cc3c(s2)C(=O)NC(C)(C)N3)ccn1 [Compound 38, N-(4-(2,2-Dimethyl-4-oxo-1,2,3,4-tetrahydrothieno [3,2-d]pyrimidin-6-yl)pyridin-2-yl)acetamide] |  | 
3 | 38% |  |  |  | 1.31 ± 0.042 µM | 3.74 ± 0.217 µM | CC1(C)NC(=O)c2sc(-c3ccnc(NC(=O)c4ccccc4)c3)cc2N1 [Compound 43, N-(4-(2,2-Dimethyl-4-oxo-1,2,3,4-tetrahydrothieno [3,2-d]pyrimidin-6-yl)pyridin-2-yl)benzamide] |  | 
4 | 16% | 11% | < 10% |  |  |  | CCS(=O)(=O)Nc1cccc(-c2cc3c(s2)C(=O)NC(C)(C)N3)c1 [Compound 55, N-(3-(2,2-Dimethyl-4-oxo-1,2,3,4-tetrahydrothieno [3,2-d]pyrimidin-6-yl)phenyl)ethanesulfonamide] |  | 
5 | < 10% | 32% | < 10% |  |  |  | CC1(C)NC(=O)c2sc(-c3ccnc(NS(C)(=O)=O)c3)cc2N1 [Compound 44, N-(4-(2,2-Dimethyl-4-oxo-1,2,3,4-tetrahydrothieno [3,2-d]pyrimidin-6-yl)pyridin-2-yl)-methanesulfonamide] |  | 
6 | 41% | 39% |  |  |  | 1.73 ± 0.078 µM | CC1(C)NC(=O)c2sc(-c3ccnc(NCC4CC4)c3)cc2N1 [Compound 46, 6-(2-((Cyclopropylmethyl)amino)pyridin-4-yl)-2,2-dimethyl-2,3-dihydrothieno [3,2-d]pyrimidin-4(1H)-one] |  | 
7 | 46% |  |  |  | 0.161 ± 0.002 µM | 0.119 ± 0.006 µM | CC1(C)NC(=O)c2sc(-c3ccncc3)cc2N1 [I, reference compound] |  | 0.09 µM
8 | 18% |  | 30% |  | 0.83 ± 0.03 µM |  | CC1(C)NC(=O)c2sc(-c3ccnc(NC(=O)C4CCCCC4)c3)cc2N1 [Compound 42, N-(4-(2,2-Dimethyl-4-oxo-1,2,3,4-tetrahydrothieno [3,2-d]pyrimidin-6-yl)pyridin-2-yl)-cyclohexanecarboxamide] |  | 

More lines, now with the values behind:

Row | SMILES | inhibition at 10 µM (IKK-β [1]) | inhibition at 10 µM (GSK-3β) | inhibition at 10 µM (ROCK-1 [2]) | IC50 (IKK-β [1]) | IC50 (GSK-3β) | IC50 (ROCK-1 [2]) | IC50 (IKK-β [3]) | IC50 (ROCK-1 [4])
9 | CC1(C)NC(=O)c2sc(-c3cccc(NS(=O)(=O)C4CCCCC4)c3)cc2N1 [Compound 56, N-(3-(2,2-Dimethyl-4-oxo-1,2,3,4-tetrahydrothieno [3,2-d]pyrimidin-6-yl)phenyl)cyclohexanesulfonamide] | < 10% | < 10% | 33% |  |  |  |  | 
10 | CC1(C)NC(=O)c2sc(-c3ccc(F)c(NC(=O)C4CC4)c3)cc2N1 [Compound 54, N-(5-(2,2-Dimethyl-4-oxo-1,2,3,4-tetrahydrothieno [3,2-d]pyrimidin-6-yl)-2-fluorophenyl)-cyclopropanecarboxamide] | 10% |  |  |  | 0.453 ± 0.013 µM |  |  | 
11 | CC1(C)NC(=O)c2sc(-c3cccc(S(=O)(=O)N4CCCCC4)c3)cc2N1 [Compound 57, 2,2-Dimethyl-6-(3-(piperidin-1-ylsulfonyl)phenyl)-2,3-dihydrothieno [3,2-d]pyrimidin-4(1H)-one] | 17% | < 10% | < 10% |  |  |  |  | 
12 | O=C1NC2(CCCO2)Nc2cc(-c3ccnc(NC(=O)C4CC4)c3)sc21 (stereo not shown) [Compound 61, N-(4-(4′-Oxo-3′,4,4′,5-tetrahydro-1′H,3H-spiro[furan-2,2′-thieno [3,2-d]pyrimidin]-6′-yl)pyridin-2-yl)cyclopropanecarboxamide] | < 10% |  | 40% |  | 0.012 µM |  |  | 
13 | NC(=O)Nc1cc(-c2ccnc(NC(=O)c3ccccc3)c2)sc1C(N)=O [Compound 52, 5-(2-Benzamidopyridin-4-yl)-3-ureidothiophene-2-carboxamide] | 30% |  | 15% |  | 0.398 ± 0.012 µM |  |  | 
14 | NC(=O)Nc1cc(-c2ccc(F)cc2)sc1C(N)=O [III, reference compound] |  | 47% |  | 0.405 ± 0.009 µM |  |  | 0.063 µM | 
15 | CC1(C)NC(=O)c2sc(-c3cccc(NC(=O)C4CC4)c3)cc2N1 [Compound 53, N-(3-(2,2-Dimethyl-4-oxo-1,2,3,4-tetrahydrothieno [3,2-d]pyrimidin-6-yl)phenyl)cyclopropanecarboxamide] | < 10% | 47% | < 10% |  |  |  |  | 
16 | NC(=O)Nc1cc(-c2ccnc(NC(=O)C3CCCCC3)c2)sc1C(N)=O [Compound 51, 5-(2-(Cyclohexanecarboxamido)pyridin-4-yl)-3-ureidothiophene-2-carboxamide] | < 10% |  |  |  | 0.614 ± 0.026 µM |  |  | 
17 | CC(=O)Nc1cc(-c2cc(NC(N)=O)c(C(N)=O)s2)ccn1 [Compound 47, 5-(2-Acetamidopyridin-4-yl)-3-ureidothiophene-2-carboxamide] | 17% | 34% |  |  |  |  |  | 
18 | NC(=O)Nc1cc(-c2ccc(F)c(NC(=O)C3CC3)c2)sc1C(N)=O [Compound 59, 5-(3-(Cyclopropanecarboxamido)-4-fluorophenyl)-3-ureidothiophene-2-carboxamide] |  |  | < 10% | 7.62 ± 0.695 µM | 1.85 ± 0.038 µM |  |  | 
